Assays:
Assay type in all cases: in vivo
Settings in all cases: SD rats, intragastric; for NAD+ level in blood: 100 mg/kg NMN and/or 10 mg/kg quercetin
NAD+ [1] = assay: Increasing the level of NAD+ by controlled-release NMN microspheres 1-3, blood NAD+ by HPLC (Example 3)
Experimental: (§1) 28 SD rats weighing about 200 g were purchased, and an experiment was carried out after one week of adaptive feeding. The 28 rats were divided into 7 groups, 4 rats per group (half male and half female). The rats in group 1 were not treated, the rats in group 2 were administered intragastrically with 100 mg/kg of NMN, the rats in group 3 were administered intragastrically with 10 mg/kg of quercetin, the rats in group 4 were administered intragastrically with 100 mg/kg of NMN and 10 mg/kg of quercetin at the same time, the rats in group 5 were administered intragastrically with the controlled-release microspheres 1 containing 100 mg/kg of NMN and 10 mg/kg of quercetin, the rats in group 6 were administered intragastrically with the controlled-release NMN microspheres 2 containing 100 mg/kg of NMN and 10 mg/kg of quercetin, and the rats in group 7 were administered intragastrically with the controlled-release NMN microspheres 3 containing 100 mg/kg of NMN and 10 mg/kg of quercetin.
Blood was collected from the rat in each groups via the tail vein at time points of 2 h, 2.5 h, 3 h, 3.5 h, 4 h, 4.5 h, 5 h, 5.5 h, and 6 h, respectively, after intragastric administration of corresponding microspheres, and 0.1 mL of blood was collected each time by each rat. After the vein blood collected from the rat in each groups at each time point was treated, the NAD+ level in the blood sample was tested by high performance liquid chromatography (HPLC). The test results of 4 rats in each group were averaged. […] Different parameters are set in the preparation processes of the controlled-release NMN microsphere 1, the controlled-release NMN microsphere 2, and the controlled-release NMN microsphere 3, so the time intervals between release peaks of quercetin and release peaks of NMN in the microspheres are different. A time difference between a peak of the releasing of quercetin and a peak of the releasing of NMN in the controlled-release NMN microsphere 1 is 1 h-2 h, a time difference between a peak of the releasing of quercetin and a peak of the releasing of NMN in the controlled-release NMN microsphere 2 is 0.5 h-1.5 h, and a time difference between a peak of the releasing of quercetin and a peak of the releasing of NMN in the controlled-release NMN microsphere 3 is 0 h-1 h.

NAD+ [2] = assay: Increasing the level of NAD+ by controlled-release NMN microspheres 2, 5, 6, blood NAD+ by HPLC (Example 9)
Experimental: as §1, with “the controlled-release NMN microspheres 2” for “the controlled-release microspheres 1”, “NMN microspheres 2 containing 100” for “controlled-release microspheres 1 containing 100”, “NMN microspheres 5 containing 100” for “NMN microspheres 2 containing 100”, “NMN microspheres 6 containing 100” for “NMN microspheres 3 containing 100”
Blood was collected from the rat in each groups via the tail vein at time points of 2 h, 2.5 h, 3 h, 3.5 h, 4 h, 4.5 h, 5 h, 5.5 h, and 6 h, respectively, after intragastric administration of corresponding microspheres, and 0.1 mL of blood was collected each time by each rat. After the vein blood collected from the rat in each groups at each time point was treated, the NAD+ level in the blood sample was tested by high performance liquid chromatography (HPLC). The test results of 4 rats in each group were averaged. […] There are time differences between a peak of the releasing of quercetin and a peak of the releasing of NMN in the controlled-release NMN microsphere 2, the controlled-release NMN microsphere 5, and the controlled-release NMN microsphere 6 that are prepared based on difference mass ratios of quercetin (the CD38 inhibitor) to NMN, and the time differences between a peak of the releasing of quercetin and a peak of the releasing of NMN in the three microspheres are consistent and are all about 0.5-1.5 h.

NAD+ [3] = assay: Increasing the level of NAD+ by controlled-release NMN microspheres 2, 9, 10, blood NAD+ by HPLC (Example 15)
Experimental: as §1, with “10 mg/kg quercetin at” for “10 mg/kg of quercetin at”, “the controlled-release NMN microspheres 2” for “the controlled-release microspheres 1”, “NMN microspheres 2 containing 100” for “controlled-release microspheres 1 containing 100”, “NMN microspheres 9 containing 100” for “NMN microspheres 2 containing 100”, “NMN microspheres 10 containing 100” for “NMN microspheres 3 containing 100”
Blood was collected from each rat in the groups via the tail vein at time points of 2 h, 2.5 h, 3 h, 3.5 h, 4 h, 4.5 h, 5 h, 5.5 h, and 6 h, respectively, after intragastric administration of corresponding microspheres, and 0.1 mL of blood was collected each time by each rat. After the vein blood collected from each rat in the groups at each time point was treated, the NAD+ level in the blood sample was tested by high performance liquid chromatography (HPLC). The test results of 4 rats in each group were averaged. […] There are time differences between a peak of the releasing of quercetin and a peak of the releasing of NMN in the controlled-release NMN microsphere 2, the controlled-release NMN microsphere 9, and the controlled-release NMN microsphere 10 that are prepared based on different mass ratios of quercetin (the CD38 inhibitor) to the excipient and different mass ratios of NMN to the excipient, and the time differences between a peak of the releasing of quercetin and a peak of the releasing of NMN in the three microspheres are consistent and are all about 0.5-1.5 h.

Row | Compound | level of NAD+ in the rat compared with the blank group (in words) (NAD+ [1]) | NAD+ level in blood (NAD+ [1]; 2 h) [µM] | NAD+ level in blood (NAD+ [1]; 2.5 h) [µM] | NAD+ level in blood (NAD+ [1]; 3 h) [µM] | NAD+ level in blood (NAD+ [1]; 3.5 h) [µM] | NAD+ level in blood (NAD+ [1]; 4 h) [µM] | NAD+ level in blood (NAD+ [1]; 4.5 h) [µM] | NAD+ level in blood (NAD+ [1]; 5 h) [µM] | NAD+ level in blood (NAD+ [1]; 5.5 h) [µM] | NAD+ level in blood (NAD+ [1]; 6 h) [µM] | level of NAD+ in the rat compared with the blank group (in words) (NAD+ [2]) | NAD+ level in blood (NAD+ [2]; 2 h) [µM] | NAD+ level in blood (NAD+ [2]; 2.5 h) [µM] | NAD+ level in blood (NAD+ [2]; 3 h) [µM] | NAD+ level in blood (NAD+ [2]; 3.5 h) [µM] | NAD+ level in blood (NAD+ [2]; 4 h) [µM] | NAD+ level in blood (NAD+ [2]; 4.5 h) [µM] | NAD+ level in blood (NAD+ [2]; 5 h) [µM] | NAD+ level in blood (NAD+ [2]; 5.5 h) [µM] | NAD+ level in blood (NAD+ [2]; 6 h) [µM] | also measured
1 | NC(=O)c1ccc[n+]([C@@H]2O[C@H](COP(=O)([O-])O)[C@@H](O)[C@H]2O)c1 [NMN, nicotinamide mononucleotide] | can increase the level of NAD+ in the rat | 139 | 207 | 173 | 159 | 150 | 145 | 148 | 152 | 147 | can increase the level of NAD+ in the rat | 133 | 197 | 168 | 159 | 143 | 148 | 139 | 144 | 140 | level of NAD+ in the rat compared with the blank group (in words) (NAD+ [3]): can increase the level of NAD+ in the rat; NAD+ level in blood (NAD+ [3]; 2 h): 134 µM; NAD+ level in blood (NAD+ [3]; 2.5 h): 193 µM; NAD+ level in blood (NAD+ [3]; 3 h): 153 µM; NAD+ level in blood (NAD+ [3]; 3.5 h): 168 µM; NAD+ level in blood (NAD+ [3]; 4 h): 142 µM; NAD+ level in blood (NAD+ [3]; 4.5 h): 137 µM; NAD+ level in blood (NAD+ [3]; 5 h): 131 µM; NAD+ level in blood (NAD+ [3]; 5.5 h): 138 µM; NAD+ level in blood (NAD+ [3]; 6 h): 134 µM
2 | O=c1c(O)c(-c2ccc(O)c(O)c2)oc2cc(O)cc(O)c12 [Quercetin, quercetin] | can increase the level of NAD+ in the rat | 145 | 152 | 178 | 160 | 147 | 150 | 151 | 144 | 149 | can increase the level of NAD+ in the rat | 127 | 146 | 180 | 164 | 151 | 144 | 147 | 130 | 137 | level of NAD+ in the rat compared with the blank group (in words) (NAD+ [3]): can increase the level of NAD+ in the rat; NAD+ level in blood (NAD+ [3]; 2 h): 121 µM; NAD+ level in blood (NAD+ [3]; 2.5 h): 140 µM; NAD+ level in blood (NAD+ [3]; 3 h): 176 µM; NAD+ level in blood (NAD+ [3]; 3.5 h): 158 µM; NAD+ level in blood (NAD+ [3]; 4 h): 146 µM; NAD+ level in blood (NAD+ [3]; 4.5 h): 138 µM; NAD+ level in blood (NAD+ [3]; 5 h): 141 µM; NAD+ level in blood (NAD+ [3]; 5.5 h): 124 µM; NAD+ level in blood (NAD+ [3]; 6 h): 132 µM
